According to US20030162759A1, “Aldosterone blocker therapy to prevent or treat inflammation-related disorders” (priority 2000, published 2003):
“Also recorded” adds a separate entry of the source.

Assays:
Assay type in all cases: in vivo, rat
aldosterone infused rats = experiment: Assay B aldosterone infusion model: myocardial fibrosis (interstitial collagen volume fraction, hydroxyproline); conditions: aldosterone/salt treatment, 4 weeks
Procedure: Assay B: In vivo Aldosterone Infusion Model Male Sprague Dawley rats (n=39; BW=250 g) […] Uni-nephrectomy performed during implantation of mini-pumps 2. Aldosterone (0.75 mg/hr, sc via aizet minipump) 2. […] 1. […] Sacrifice after 4 weeks. Hearts were stained with hematoxylin&eosin and the collagen specific dye picro-sirius red and were analyzed for determination of interstitial collagen volume fraction and morphologic abnormalities (i.e. necrosis, vascular injury). Hydroxyproline concentration was measured in the frozen hearts.

[1] = tested on: angiotensin II infused rats; experiment: Assay A angiotensin II infusion model: urinary Na+/K+ ratio (natriuresis index); conditions: saline-drinking rats, eplerenone 100 mpk
Description: 24-hours food and fluid intake and urine output measured every day Urine samples collected every day for determination of urinary electrolytes. Electrolyte excretion. The ratio between daily urinary Na^+ excretion and urinary K^+ excretion (U Na^+/K^+ ratio) was used as an index for natriuresis. Urinary Na^+/K^+ ratio was similar in all groups before the start of the treatments, and increased similarly in all animals upon initiation of the high salt diet.

osteopontin [2] = experiment: Assay B aldosterone infusion model: serum (circulating) osteopontin at 28 days; conditions: NaCl 1% drinking rats with aldosterone and eplerenone
Procedure: Assay B: In vivo Aldosterone Infusion Model Male Sprague Dawley rats (n=39; BW=250 g) […] Uni-nephrectomy performed during implantation of mini-pumps 2. Aldosterone ([…], sc via aizet minipump) 2. […] Sacrifice after 4 weeks.

osteopontin [3] = experiment: Assay B aldosterone infusion model: osteopontin mRNA in heart by quantitative RT-PCR (Taqman)
Procedure: (§1) Assay B: In vivo Aldosterone Infusion Model Male Sprague Dawley rats (n=39; BW=250 g) […] Uni-nephrectomy performed during implantation of mini-pumps […] Aldosterone ([…], sc via aizet minipump) […] 1. […] Sacrifice after 4 weeks. Hearts were harvested and divided by half through a transverse section at the mid-ventricles: The upper half was stored into formalin. The bottom part was snap-frozen in liquid nitrogen for biochemical analysis. Determination of osteopontin and COX-2 was performed by quantitative RT-PCR (Taqman). Osteopontin was also identified in the heart by immunohistochemistry.

COX-2 = experiment: Assay B aldosterone infusion model: COX-2 mRNA in heart by quantitative RT-PCR (Taqman)
Procedure: as §1

[4] = tested on: osteopontin, ED-1, CD-3, ICAM-1, VCAM-1; experiment: Assay C: immunohistochemistry of myocardial tissue (osteopontin, ED-1, CD-3, ICAM-1, VCAM-1); conditions: aldosterone+salt treated rats; eplerenone 100 mg/kg/day
Procedure: The procedure of Assay B was expanded upon in a further study. […] Myocardial tissue from animals in each treatment group was examined after 7, 14, or 30 days of treatment. […] Lesions were preceded by the expression and progressive upregulation of proinflammatory molecules.
Potassium chloride supplementation was added to the saline solution in order to prevent the potential hypokalemia associated with aldosterone excess.
At the time of the surgery, an Alzet 2002 osmotic minipump (Alza Corp., Palo Alto, Calif.) containing either vehicle (9% ethanol/87% propylene glycol/4% dH2O) or 1.0 mg/mL d-aldosterone (Sigma Chemical, St. Louis, Mo.) was inserted subcutaneously at the nape of the neck. Aldosterone was administered at a dose of 0.75 g/hour. […] Animals were sacrificed from each group (n=8-13) after 7, 14, or 30 days of treatment.
Five m sections were deparaffinized in xylene (two, 5-10 min incubations) and rehydrated by 3 min incubations in ethanol as follows: two incubations in 100% ethanol followed by two incubations in 95% alcohol and one incubation in 70% alcohol. Once hydrated, sections were rinsed in tap water for 1 min and distilled water for 1 min. Endogenous peroxide activity was blocked by placing slides in 3.0% H2O2 for 15 min followed by a 5 min rinse in distilled water. Slides were processed for antigen retrieval using citric acid, pH 6.0. […]

[5] = tested on: angiotensin II infused, captopril treated stroke prone spontaneously hypertensive rats; experiment: Angiotensin II infused, captopril treated stroke prone spontaneously hypertensive rats: urinary protein excretion and renal injury (FIGS. 35-36)
[6] = tested on: stroke-prone spontaneously hypertensive rats; experiment: Stroke-prone spontaneously hypertensive rats: survival and cerebral injury (FIGS. 37-38); conditions: stroke-prone spontaneously hypertensive rats (FIGS. 37, 38)
[7] = heart, quantitative RT-PCR, aldosterone/salt rats, 4 weeks, eplerenone 100 mpk p.o.

C[C@]12CCC(=O)C=C1CC[C@@H]1[C@@H]2[C@@H](O)C[C@]2(C=O)[C@@H](C(=O)CO)CC[C@@H]12 [aldosterone]
Myocardial fibrosis (interstitial collagen volume fraction, hydroxyproline concentration) (aldosterone infused rats): absence of myocardial fibrosis

COC(=O)[C@@H]1CC2=CC(=O)CC[C@]2(C)[C@@]23O[C@@H]2C[C@@]2(C)[C@@H](CC[C@@]24CCC(=O)O4)[C@H]13 [eplerenone, Pregn-4-ene-7,21-dicarboxylic acid, 9,11-epoxy-17-hydroxy-3-oxo-, γ-lactone, methyl ester, (7α, 11α, 17β) -]
Urinary Na+/K+ ratio (diuretic or natriuretic effect) [1]: did not produce a significant diuretic or natriuretic effect | Circulating (serum) osteopontin levels (osteopontin [2]): marked decrease in circulating osteopontin levels | Osteopontin upregulation in myocardium (osteopontin [3]; aldosterone infused rats (FIG. 30)): prevention by eplerenone of osteopontin upregulation | Osteopontin relative mRNA expression (osteopontin [3]; [7]): 2.5±0.6 | COX-2 upregulation in myocardium (COX-2; aldosterone infused rats (FIG. 31)): prevention by eplerenone of COX-2 upregulation | COX-2 relative mRNA expression (COX-2; [7]): 1.8±0.36 | Staining in myocardial tissue for marker proteins (immunohistochemistry) [4]: markedly blunted the aldosterone+salt treatment induced staining | Urinary protein excretion ([5]; captopril treated SHRSP (FIG. 35)): inhibition of increased urinary protein excretion | Histopathological scores for renal injury ([5]; captopril treated SHRSP (FIG. 36)): reduction in histopathological scores for renal injury | Cerebral injury [6]: reduced cerebral injury; also recorded: decrease in cerebral injury
